Assay: Inhibition of ATX (unknown origin)-mediated cell migration in human MDA-MB-231 cells assessed as reduction in cell motility after 3 hrs by Diff-Quick staining based microplate reader analysis

`CCCCCCn1c(C)cc(=O)n2cc(-c3ccc(Cl)cc3)nc12` showed an IC50 of 30 nM.
